Read-outs that look alike come from different tables or passages of the source.
Experiments:
[1] = tested on: SARS-CoV-2; assay: SARS-CoV-2 antiviral assay in Vero cells; type: cell-based; conditions: Severe acute respiratory syndrome coronavirus 2, Vero cells, FIG. 11; for IC50: read-out: antiviral IC50; for IC90: read-out: antiviral IC90
[2] = tested on: MDA-MB-231; assay: Inhibition of mammary carcinoma cell line MDA-MB-231; type: cell-based; conditions: Table 5; MDA-MB-231, human, Basal, HER2−
Description: (§1) 3-(4,5-Dimethylthiazol-2-yl)-2,5-diphenyltetrazolium Bromide (MTT) Cell Proliferation Assay. To cells grown in 96-well-tissue culture plate, 20 μl/well of MTT solution (5 mg/ml in PBS) was added. After 1-2 hours incubation at 37° C., the plate was centrifuged. Supernatant was discarded and 100 μl DMSO was added to dissolve water insoluble formazan, and the absorbance was read at 540 nm with a plate reader.

[3] = tested on: mm006; assay: Inhibition of mammary carcinoma cell line mm006; type: cell-based, mouse (C57BL/6); conditions: Mus musculus, read-out: IC50 (uM), mm006
Description: as §1

[4] = Microsomal stability, mouse liver microsomes; type: in vitro ADME; conditions: 10 μM, mouse liver microsomes 1 mg/mL, NADPH 2 mM, 37° C.
Description: (§2) Microsomal stability of HBB and HCB were evaluated in human and mouse liver microsomes. 10 μM of HBB or HCB was tested in a biological matrix comprising of human or mouse liver microsomes (1 mg/mL) (Table 6). NADPH (2mM) was added as a cofactor. Total volume was 200 μL.
(§3) HBB or HCB was incubated for 0, 30, or 60 min at 37° C. Incubations were quenched with 2 volumes of acetonitrile followed by centrifugation for 10 min at 16,000 g.

[5] = tested on: MCF-7 cells; assay: MTT cell proliferation assay, MCF-7; type: cell-based, human; conditions: MCF7
Description: FIG. 8. Effects of HCB on the proliferation of MCF-7 cells. MCF-7 cells were seeded in 96 well plates and treated with drugs at varied concentration for 24 hours. MTT assay was performed to determine remaining viable cells in each well. Results are represented as mean±S.D. (n=7). IC50 was determined by curve fitting.
as §1

[6] = tested on: LR/FR MCF7A1C cells; assay: Crystal violet cell proliferation assay, LR,FR-MCF7AC1; type: cell-based, human; conditions: for IC50: Homo sapiens, read-out: IC50, LR/FR MCF7A1C cells
Description: Derivation process of LR-FR- and LR-FR-PR resistant MCF7AC1 cells. The letrozole-resistant MCF7AC1 cell line (LR-MCF7AC1) was generated in vivo from the aromatase-expressing MCF7A C1 tumor-bearing athymic female nude mice that received letrozole therapy (10 μg/day, five days a week) over a period of 27 weeks. To facilitate tumor growth mice also received the estrogen precursor androstenedione (100 μg/day, five days a week), which is intratumorally converted by aromatase into estradiol (Yue W, et al. Cancer Res. 1994; 54(19):5092-5). With the emergence of the letrozole resistant tumors, these tumors were harvested from in vivo and the LR-MCF7AC1 cell line was established in vitro (Jayaraman S., et al. Breast Cancer Res. 2020; 22(1):51), where the cells grew in phenol-red free IMEM+10% FBS media containing antibiotics.
In a second in vivo study, the LR-MCF7AC1 tumor-bearing athymic female nude mice were randomized to multiple endocrine therapies including fulvestrant therapy (1000 μg/day, five days a week). One mouse harboring the LR-MCF7AC1 tumor began to develop resistance to fulvestrant therapy at 31 weeks of treatment. This fulvestrant-resistant LR-MCF7AC1 tumor was harvested from mice and reimplanted into mice for two successive generations. The 2nd generation tumor was harvested from in vivo and the LR,FR-MCF7AC1 cell line was established in vitro, where the cells grew in phenol-red free IMEM+10% FBS media containing antibiotics.
Cell proliferation assay: The cells mentioned in this study were seeded in 96 wells-plates (2000-4000 cells/well) and treated 24 hours later with DMSO (vehicle control), HCB or HBB drugs at the indicated concentrations. 72 hours later, the cells were fixed in situ with 25% (v/v) glutaraldehyde, followed by staining with 0.52% crystal violet (CV) in 25% methanol (Fisher Chemical). The CV stained plates were solubilized in 100 mM sodium citrate in 50% ethanol solution and absorbance of the stain measured at 550 nm using a plate reader. Each data point represents mean±SD, obtained from six wells per treatment performed in biological triplicates. […]

[7] = Microsomal stability, human liver microsomes; type: in vitro ADME; conditions: for parent metabolite peak area after 60 min: 10 μM, human liver microsomes 1 mg/mL, NADPH 2 mM, 37° C.; for degradation pathways: human or mouse liver microsomes
Description: as §2, §3

[8] = in vitro; conditions: African green monkey, Vero E6 cells
[9] = tested on: BT474; assay: Inhibition of mammary carcinoma cell line BT474; type: cell-based; conditions: BT-474; Table 5; BT474, human, ERα+, HER2+
Description: as §1

[10] = Table 5, MCF-7, human, ERα+, HER2−, read-out: IC50 (uM), MCF-7

Structure (SMILES)	IC50 [1] [µM]	IC90 [1] [µM]	IC50 [2] [µM]	IC50 [3] [µM]	parent metabolite peak area after 60 min [4] [%]	IC50 [5, 10] [µM]	IC50 ([6]; 72 h) [µM]	parent metabolite peak area after 60 min [7] [%]	degradation pathways [7]	CC50 at 48 h [8] [µM]	IC50 [9] [µM]	IC50 ([3]; Table 5, mm006, C57BL/6, Basal) [µM]	IC50 ([5]; Homo sapiens, MTT, 24 hours treatment, curve fitting, read-out: IC50, proliferation of MCF-7 cells) [µM]	IC50 ([6]; letrozole- and fulvestrant-resistant, 72 hours, crystal violet) [µM]	fold increase in sensitivity, HCB vs HBB ([6]; LR/FR and LR/FR/PR MCF7A1C cells) [fold]
CCCCCCNC(=N)NC(=N)NCc1ccccc1 [HBB, N1-hexyl-N5-benzyl-biguanide]	> 20	> 20	18.5	38.5	8.95	22.2	3.9	19.19	oxidation, dehydrogenation, and glucuronidation	> 20	23.2				
CCCCCCNC(=N)NC(=N)NCC12C3C4C5C3C1C5C42 (stereo not drawn) [HCB, Hexyl Cubanomethyl Biguanide]	15.6	19.6	15.4		18.63	8.4		48.18	oxidation, dehydrogenation, and hydrogenation	13.3	10.9	16.9	8.4 ± 1.2	1.3	~3

From patent publication US20240067603A1, “CUBANYL BIGUANIDE COMPOUNDS” (REGENTS OF THE UNIVERSITY OF MINNESOTA, priority 2020, published 2024)
